Where a SMILES comes first, the peptide text is derived from it. [ ]: non-standard residue; d: D form. dPhe(4-Cl) = N[C@H](Cc1ccc(Cl)cc1)C(=O)O; d2Nal = N[C@H](Cc1ccc2ccccc2c1)C(=O)O; dCit = NC(=O)NCCC[C@@H](N)C(=O)O; d3Pal = N[C@H](Cc1cccnc1)C(=O)O
How the values were obtained:
[1] = Cetrorelix measurement in maternal and fetal brain (nano-HPLC-HRMS); format: in vivo, mouse; conditions: dams i.p. 0.5 mg/Kg E16.5-E18.5; brains at E19.5
Protocol: Timed-pregnant adult (3-4 months) C57BL6/J (B6) (Charles River, USA) dams were injected daily intraperitoneally (i.p.) from embryonic day (E) 16.5 to 18.5 with 200 μL of a solution containing respectively: 1) 0.01M phosphate buffered saline (PBS, pH 7.4, prenatal control-treated), 2) PBS with 0.5 mg Kg^−1 of the GnRH antagonist, cetrorelix acetate (Sigma, Cat #C5249; GnRH antag-treated). At E19.5, dams were anesthetized with ketamine/xylazine, and sacrificed by cervical dislocation. Dams' brains and fetal brains were collected, snap-frozen in liquid nitrogen and stored at −80° C. until nano-HPLC-HRMS experiments.
Murine maternal and embryo brain samples were prepared adapting the procedure described (Wang et al., 2014, Vol. 1345: 98-106). Briefly, the brains were weighted, homogenized with 1% formic acid in cold acetonitrile and incubated for 15 minutes at −20° C. After centrifugation, the supernatant was freeze-dried and reconstituted with 3% acetic acid and 1% trifluoroacetic acid (TFA). all of the solvents were from Sigma-Aldrich Merck (Milan, Italy). […]
The column was equipped with a nanoESl source and the capillary voltage was 2000 V in positive ion mode. […] High resolution spectra were acquired with a resolution of 60000 (FWHM) and the mass accuracy of recorded ions (vs. calculated) was ±5 ppm units (without internal calibration).

pregnant mice = experiment: Dam body weight and fat mass, aborted embryos, litter size, pup weight at birth; format: in vivo, mouse
Protocol: Dams were injected from E16.5 to E18.5 with either PBS (vehicle, n=8-11), AMH (n=10), AMH+GnRH antag (n=8-10). Body weight (grams: g); (FIG. 9A), subcutaneous fat mass (FIG. 9B) and perigonadal fat mass (FIG. 9C) was measured in dams at gestational day 19.5. (FIG. 9D) Dams were injected from E16.5 to E18.5 with either PBS (vehicle, n=9), AMH (n=9), AMH+GnRH antag (n=9). Dams were sacrificed one day later and the number of aborted embryos per litter was calculated. (FIGS. 9E, 9F) Dams were injected from E16.5 to E18.5 with either PBS (vehicle, n=3), AMH (n=3), AMH+GnRH antag (n=3). The number of pups per litter (FIG. 9E) and the weight of the pups at birth (FIG. 9F) was calculated for each treatment group (vehicle, n=12 pups; AMH, n=11 pups; AMH+GnRH antag, n=12 pups). Values are represented as the mean±s.e.m. […] Data were combined from three independent experiments. FIGS. 9A to 9F: left bar: vehicle; middle bar: AMH; right bar: AMH+GnRH antagonist.

SMILES: CC(=O)N[C@H](Cc1ccc2ccccc2c1)C(=O)N[C@H](Cc1ccc(Cl)cc1)C(=O)N[C@H](Cc1cccnc1)C(=O)N[C@@H](CO)C(=O)N[C@@H](Cc1ccc(O)cc1)C(=O)N[C@H](CCCNC(N)=O)C(=O)N[C@@H](CC(C)C)C(=O)N[C@@H](CCCNC(=N)N)C(=O)N1CCC[C@H]1C(=O)N[C@H](C)C(N)=O [Cetrorelix acetate, Ac-D-2Nal-D-Phe(4-Cl)-D-3Pal-Ser-Tyr-D-Cit-Leu-Arg-Pro-D-Ala-NH2] (Ac-[d2Nal][dPhe(4-Cl)][d3Pal]SY[dCit]LRP[dA]-NH2)
- access to maternal and fetal brain [1]: can access the maternal as well as the fetal brain
- body weights of pups at birth (pregnant mice; dams i.p. AMH+GnRH antag E16.5-E18.5): did not observe any changes
- body weight, subcutaneous fat mass or perigonadal fat mass of dams (pregnant mice; dams injected 3 days with AMH+GnRH antag, E19.5): did not find any changes

Reference: patent publication US12208130B2, “Treatment of women affected with polycystic ovary syndrome” (INSTITUT NATIONAL DE LA SANTE ET DE LA RECHERCHE MEDICALE …, priority 2017, dated 2025)
